± gives the expanded uncertainty stated by the source.
Assays:
[1] = xn = mol fraction of the nth substance listed; details: Gas, Hot wire method
[2] = Gas, Hot wire method

CCC(C)C [2-methylbutane] + CCCCC
thermal conductivity [W/m/K], [1]
Details | 100 kPa | 200 kPa | 500 kPa
345.26 K, x1 = 0.6232 | 0.01956 ± 0.00039 | 0.01963 ± 0.00039 | 0.01984 ± 0.0004
345.54 K, x1 = 0.1695 | 0.01924 ± 0.00039 | 0.01936 ± 0.00039 | 0.01973 ± 0.0004
346.28 K, x1 = 0.3293 | 0.01932 ± 0.00039 | 0.01941 ± 0.00039 | 0.0197 ± 0.0004
361.52 K, x1 = 0.3293 | 0.02107 ± 0.00042 | 0.02119 ± 0.00042 | 0.02156 ± 0.00042
362.08 K, x1 = 0.1695 | 0.02122 ± 0.00042 | 0.02131 ± 0.00042 | 0.02155 ± 0.00042
362.43 K, x1 = 0.6232 | 0.02163 ± 0.00042 | 0.02169 ± 0.00043 | 0.02187 ± 0.00043
378.03 K, x1 = 0.6232 | 0.02381 ± 0.00046 | 0.02382 ± 0.00046 | 0.02387 ± 0.00046
378.23 K, x1 = 0.1695 | 0.02312 ± 0.00045 | 0.02327 ± 0.00045 | 0.02372 ± 0.00046
378.57 K, x1 = 0.3293 | 0.02344 ± 0.00045 | 0.02346 ± 0.00045 | 0.02351 ± 0.00045
394.05 K, x1 = 0.6232 | 0.02586 ± 0.00049 | 0.02591 ± 0.00049 | 0.02605 ± 0.00049
394.45 K, x1 = 0.1695 | 0.02554 ± 0.00048 | 0.02558 ± 0.00048 | 0.02571 ± 0.00049
395.51 K, x1 = 0.3293 | 0.02569 ± 0.00049 | 0.02572 ± 0.00049 | 0.02578 ± 0.00049

CCCCC [pentane]
thermal conductivity [W/m/K], [2]
Details | 342.97 K | 366.02 K | 380.86 K | 407.37 K
100 kPa | 0.01889 ± 0.00038 | 0.02169 ± 0.00043 | 0.02371 ± 0.00046 | 0.02719 ± 0.00051
200 kPa | 0.01895 ± 0.00038 | 0.02176 ± 0.00043 | 0.02378 ± 0.00046 | 0.02728 ± 0.00051
500 kPa | 0.01915 ± 0.00039 | 0.02198 ± 0.00043 | 0.02398 ± 0.00046 | 0.02754 ± 0.00051

CCC(C)C [2-methylbutane]
thermal conductivity [W/m/K], [2]
Details | 342.97 K | 352.61 K | 375 K | 390.75 K
100 kPa | 0.01954 ± 0.00039 | 0.02064 ± 0.00041 | 0.02347 ± 0.00045 | 0.02574 ± 0.00049
200 kPa | 0.0196 ± 0.00039 | 0.02071 ± 0.00041 | 0.02356 ± 0.00045 | 0.0258 ± 0.00049
500 kPa | 0.01976 ± 0.0004 | 0.02093 ± 0.00042 | 0.02385 ± 0.00046 | 0.026 ± 0.00049

Reference: the NIST ThermoML archive (doi:10.1016/j.fluid.2007.07.059)
